One experiment deals with ATXN3 pre-mRNA. Kind of experiment: RT-qPCR Assay to Quantify Exon 4 Skipping in ATXN3 pre-mRNA in Cells. The class given is cell-based. Particulars: percent exon 4 skipping in ATXN3 pre-mRNA, RT-qPCR of cell lysates; average IC50. The method, boiled down:
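IC50 derives from a dose-response fit of percent exon 4 skipping, quantified by RT-qPCR on crude lysates. Compounds tested as 7-point 3.16-fold dilutions in duplicate; cells (10,000/well) were exposed for 24 h at 37 °C before lysis.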
On the technique in general: Real-time PCR tracks product formation cycle by cycle.

The subject of experiment [1] is Total ATXN3 (tATXN3) protein. The experiment is described as follows: Endogenous Total ATXN3 (tATXN3) Protein Assay (MSD immunoassay of cell lysates). The class given is cell-based. To be noted: average IC50, total ATXN3 protein in cell lysate after 48 h with compound (Table 1). An outline of the steps: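 By electrochemiluminescent MSD sandwich immunoassay (mouse monoclonal capture, rabbit monoclonal and SULFO-TAG anti-rabbit detection), endogenous ATXN3 was quantified in lysates of cells treated 48 h at 37° C at 10,000 cells/well. Treatment used a 7-point 3.16-fold duplicate dilution series, with average IC50 grouped into star categories.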

As usually defined, the IC50 is the midpoint of a concentration-inhibition curve. Regarding “6-((1S,2S)-2-aminocyclohexyl)-N-(but-2-yn-1-yl)-2-chloro-7-iodothieno[3,2-d]pyrimidin-4-amine [Compound 286]”, the IC50 (in the experiment with ATXN3 pre-mRNA; in experiment [1]) was 30 to 300 nM in each case.
With `N[C@@H]1CCCC[C@H]1c1sc2c(NCc3ccco3)cc(Cl)nc2c1Cl` [Compound 296, 2-((1R,2R)-2-aminocyclohexyl)-3,5-dichloro-N-(furan-2-ylmethyl)thieno[3,2-b]pyridin-7-amine], the half-maximal inhibitory concentration (IC50) (with ATXN3 pre-mRNA; in experiment [1]) was 30 to 300 nM in each case.
For “6-((1S,6S)-6-aminocyclohex-3-en-1-yl-2,2,3,4,5,5-d6)-7-bromo-2-chloro-N-(thiophen-2-ylmethyl)thieno[3,2-d]pyrimidin-4-amine [Compound 183]”, the half-maximal inhibitory concentration (IC50) (in the experiment with ATXN3 pre-mRNA; in experiment [1]) was ≤ 30 nM each time.
Take `Cc1c([C@@H]2CC=CC[C@H]2N)sc2c(NCc3nccs3)nc(Cl)nc12` [Compound 441, 6-((1R,6R)-6-aminocyclohex-3-en-1-yl)-2-chloro-7-methyl-N-(thiazol-2-ylmethyl)thieno[3,2-d]pyrimidin-4-amine]: the IC50 (in the experiment with ATXN3 pre-mRNA; in experiment [1]) was 30 to 300 nM in each case.
Consider `Cc1c([C@H]2CCCC[C@@H]2N)sc2c(NCc3ccco3)nc(Cl)nc12` [Compound 60, 6-((1S,2S)-2-aminocyclohexyl)-2-chloro-N-(furan-2-ylmethyl)-7-methylthieno[3,2-d]pyrimidin-4-amine], for which the IC50 (in the experiment with ATXN3 pre-mRNA; in experiment [1]) was ≤ 30 nM in each case.
In the case of `CCc1c([C@H]2CCC[C@@H]2N)sc2c(NCc3cccs3)cc(Cl)nc12` [Compound 11, 2-((1S,2S)-2-aminocyclopentyl)-5-chloro-3-ethyl-N-(thiophen-2-ylmethyl)thieno[3,2-b]pyridin-7-amine], the IC50 in the experiment with ATXN3 pre-mRNA lay within 30 to 300 nM; in experiment [1], 300 to 1000 nM.
For the compound `N[C@H]1CCCCC[C@H]1c1sc2c(NCc3cccs3)cc(Cl)nc2c1Br` [Compound 73, 2-((1R,2S)-2-aminocycloheptyl)-3-bromo-5-chloro-N-(thiophen-2-ylmethyl)thieno[3,2-b]pyridin-7-amine], the IC50 (in the experiment with ATXN3 pre-mRNA; in experiment [1]) was 300 to 1000 nM in each case.
Consider `N[C@@H]1CCC[C@H]1c1cc2nc(Cl)cc(NCc3cccs3)c2s1` [Compound 112, 2-((1R,2R)-2-aminocyclopentyl)-5-chloro-N-(thiophen-2-ylmethyl)thieno[3,2-b]pyridin-7-amine], for which the 50% inhibitory concentration (IC50) (in the experiment with ATXN3 pre-mRNA; in experiment [1]) was > 1000 nM each time.
Take `N[C@@H]1CCCO[C@H]1c1sc2c(NCc3ccccc3)nc(Cl)nc2c1Br` [Compound 70, 6-((2R,3R)-3-aminotetrahydro-2H-pyran-2-yl)-N-benzyl-7-bromo-2-chlorothieno[3,2-d]pyrimidin-4-amine]: the IC50 (in the experiment with ATXN3 pre-mRNA; in experiment [1]) was > 1000 nM each time.
Turning to `C/C=C/CNc1cc(Cl)nc2c(Cl)c([C@H]3CC=CC[C@@H]3N)sc12` [Compound 302, 2-((1S,6S)-6-aminocyclohex-3-en-1-yl)-N-((E)-but-2-en-1-yl)-3,5-dichlorothieno[3,2-b]pyridin-7-amine], the IC50 (in the experiment with ATXN3 pre-mRNA; in experiment [1]) was 30 to 300 nM in each case.
Regarding `N[C@H]1CCC[C@@H]1c1cc2nc(Cl)cc(NCc3cccs3)c2s1` [Compound 10, 2-((1S,2S)-2-aminocyclopentyl)-5-chloro-N-(thiophen-2-ylmethyl)thieno[3,2-b]pyridin-7-amine], the IC50 (in the experiment on ATXN3 pre-mRNA; in experiment [1]) was 300 to 1000 nM in each case.
With “2-((1R,6R)-6-aminocyclohex-3-en-1-yl)-3-bromo-5-chloro-N-(cyclopent-1-en-1-ylmethyl)thieno[3,2-b]pyridin-7-amine and 2-((1S,6S)-6-aminocyclohex-3-en-1-yl)-3-bromo-5-chloro-N-(cyclopent-1-en-1-ylmethyl)thieno[3,2-b]pyridin-7-amine [Compound 332]”, the IC50 (with ATXN3 pre-mRNA; in experiment [1]) was 30 to 300 nM in each case.
Turning to `C#Cc1c([C@@H]2CCCC[C@H]2N)sc2c(NCc3ccccc3F)cc(Cl)nc12` [Compound 430, 2-((1R,2R)-2-aminocyclohexyl)-5-chloro-3-ethynyl-N-(2-fluorobenzyl)thieno[3,2-b]pyridin-7-amine], the IC50 (in the experiment on ATXN3 pre-mRNA; in experiment [1]) was 30 to 300 nM in each case.
Consider `CC#CCNc1cc(Cl)nc2c(Br)c([C@@H]3CCCC[C@H]3N)sc12` [Compound 428, 2-((1R,2R)-2-aminocyclohexyl)-3-bromo-N-(but-2-yn-1-yl)-5-chlorothieno[3,2-b]pyridin-7-amine], for which the IC50 (in the experiment with ATXN3 pre-mRNA; in experiment [1]) was 300 to 1000 nM throughout.
With `N[C@H]1CC=CC[C@@H]1c1sc2c(NCc3cccs3)nc(Cl)nc2c1Br` [Compound 191, 6-((1S,6S)-6-aminocyclohex-3-en-1-yl)-7-bromo-2-chloro-N-(thiophen-2-ylmethyl)thieno[3,2-d]pyrimidin-4-amine], the IC50 (in the experiment with ATXN3 pre-mRNA; in experiment [1]) was ≤ 30 nM in each case.
Turning to `N[C@@H]1CCCN[C@H]1c1sc2c(NCc3cccs3)cc(Cl)nc2c1Br.N[C@H]1CCCN[C@@H]1c1sc2c(NCc3cccs3)cc(Cl)nc2c1Br` (mixture of isomers) [Compound 47, 2-((2R,3R)-3-aminopiperidin-2-yl)-3-bromo-5-chloro-N-(thiophen-2-ylmethyl)thieno[3,2-b]pyridin-7-amine and 2-((2S,3S)-3-aminopiperidin-2-yl)-3-bromo-5-chloro-N-(thiophen-2-ylmethyl)thieno[3,2-b]pyridin-7-amine], the values for the IC50 (in the experiment on ATXN3 pre-mRNA; in experiment [1]) were 300 to 1000 nM and > 1000 nM, respectively.
`N[C@H]1CCCO[C@@H]1c1c(I)c2nc(Cl)nc(NCc3cccs3)c2n1C(F)F` [Compound 254, 6-((2S,3S)-3-aminotetrahydro-2H-pyran-2-yl)-2-chloro-5-(difluoromethyl)-7-iodo-N-(thiophen-2-ylmethyl)-5H-pyrrolo[3,2-d]pyrimidin-4-amine]: the IC50 (with ATXN3 pre-mRNA; in experiment [1]) was 30 to 300 nM throughout.
Take “2-((2R,3S)-3-aminopiperidin-2-yl)-3-bromo-5-chloro-N-(thiophen-2-ylmethyl)thieno[3,2-b]pyridin-7-amine and 2-((2S,3R)-3-aminopiperidin-2-yl)-3-bromo-5-chloro-N-(thiophen-2-ylmethyl)thieno[3,2-b]pyridin-7-amine [Compound 46]”: the IC50 (in the experiment with ATXN3 pre-mRNA; in experiment [1]) was > 1000 nM throughout.
Turning to “2-((3R,4S)-3-aminotetrahydro-2H-pyran-4-yl)-5-chloro-N-(thiophen-2-ylmethyl)-3-vinylthieno[3,2-b]pyridin-7-amine and 2-((3S,4R)-3-aminotetrahydro-2H-pyran-4-yl)-5-chloro-N-(thiophen-2-ylmethyl)-3-vinylthieno[3,2-b]pyridin-7-amine [Compound 350]”, the IC50 (in the experiment with ATXN3 pre-mRNA; in experiment [1]) was 30 to 300 nM in each case.
Take “2-((1R,2R)-2-aminocyclohexyl)-5-chloro-3-(prop-1-yn-1-yl)-N-(thiophen-2-ylmethyl)thieno[3,2-b]pyridin-7-amine and 2-((1S,2S)-2-aminocyclohexyl)-5-chloro-3-(prop-1-yn-1-yl)-N-(thiophen-2-ylmethyl)thieno[3,2-b]pyridin-7-amine [Compound 189]”: the IC50 (with ATXN3 pre-mRNA; in experiment [1]) was ≤ 30 nM each time.
As for `Cc1c([C@@H]2CCCC[C@H]2N)sc2c(NCc3ccco3)nc(Cl)nc12` [Compound 59, 6-((1R,2R)-2-aminocyclohexyl)-2-chloro-N-(furan-2-ylmethyl)-7-methylthieno[3,2-d]pyrimidin-4-amine], the figures for the IC50 (with ATXN3 pre-mRNA; in experiment [1]) were 300 to 1000 nM and > 1000 nM, respectively.
The corresponding values for `Cc1c([C@@H]2OCCC[C@H]2N)sc2c(NCc3cccs3)cc(Cl)nc12` (single isomer, unassigned) [Compound 44, 2-((2R,3R)-3-aminotetrahydro-2H-pyran-2-yl)-5-chloro-3-methyl-N-(thiophen-2-ylmethyl)thieno[3,2-b]pyridin-7-amine or 2-((2S,3S)-3-aminotetrahydro-2H-pyran-2-yl)-5-chloro-3-methyl-N-(thiophen-2-ylmethyl)thieno[3,2-b]pyridin-7-amine] are > 1000 nM and > 1000 nM.
On to “2-((2R,3S)-3-aminotetrahydrofuran-2-yl)-3-bromo-5-chloro-N-(thiophen-2-ylmethyl)thieno[3,2-b]pyridin-7-amine and 2-((2S,3R)-3-aminotetrahydrofuran-2-yl)-3-bromo-5-chloro-N-(thiophen-2-ylmethyl)thieno[3,2-b]pyridin-7-amine [Compound 150]”, for which the IC50 (with ATXN3 pre-mRNA; in experiment [1]) was 30 to 300 nM throughout.
On to “2-((3R,4S)-3-aminotetrahydro-2H-pyran-4-yl)-3-bromo-5-chloro-N-(furan-2-ylmethyl)thieno[3,2-b]pyridin-7-amine and 2-((3S,4R)-3-aminotetrahydro-2H-pyran-4-yl)-3-bromo-5-chloro-N-(furan-2-ylmethyl)thieno[3,2-b]pyridin-7-amine [Compound 316]”, for which the IC50 (in the experiment on ATXN3 pre-mRNA; in experiment [1]) was 30 to 300 nM each time.
For the compound `N[C@@H]1CCCO[C@H]1c1sc2c(NCc3cccs3)cc(Cl)nc2c1C#CCCO.N[C@H]1CCCO[C@@H]1c1sc2c(NCc3cccs3)cc(Cl)nc2c1C#CCCO` (mixture of isomers) [Compound 213, 4-(2-((2R,3R)-3-aminotetrahydro-2H-pyran-2-yl)-5-chloro-7-((thiophen-2-ylmethyl)amino)thieno[3,2-b]pyridin-3-yl)but-3-yn-1-ol and 4-(2-((2S,3S)-3-aminotetrahydro-2H-pyran-2-yl)-5-chloro-7-((thiophen-2-ylmethyl)amino)thieno[3,2-b]pyridin-3-yl)but-3-yn-1-ol], the IC50 (in the experiment with ATXN3 pre-mRNA; in experiment [1]) was ≤ 30 nM each time.

The record behind these values is US20250382305A1 (PTC THERAPEUTICS, INC., priority 2022, published 2025).
